SMILES strings stand for the structures. Where “and” joins values, the source holds several entries; their conditions need not be identical. Equal values may be shown once. Where a name gives a salt, the structure may show the parent alone.

The test system of one assay is NRG1-ERBB4 signaling. Put plainly: Nrg1-ERBB4-PIK3R1 split TEV co-culture compound screen of the NIH Clinical Collection. It is filed as cell-based, human.
Conditions: not given
`Cl.Nc1c2c(nc3ccccc13)CCCC2` returned a Z-SCORE of 1.29.

For the molecule `C[C@]12CC[C@H]3[C@@H](CCC4=CC(=O)CC[C@@]43C)[C@@H]1CC[C@@H]2O` [Testosterone, reference compound], the Z-SCORE is 0.79 and 0.91.

`CNCC[C@H](Oc1cccc2ccccc12)c1cccs1` [Duloxetine] registered a Z-SCORE of -0.82.

The assay is the same for the next values; noted with them: NIH Clinical Collection NCC-003 raw data; compounds ranked by Z-score; 'flagged' given instead of a Z-score.
`CCOC(=O)C1=C(C)NC(C)=C(C(=O)OC)C1c1cccc([N+](=O)[O-])c1` (stereo not shown) [NITRENDIPINE] displayed a Z-SCORE of -1.82.

`OC[C@H]1O[C@@H](n2cnc3c(NC4CCCC4)nc(Cl)nc32)[C@H](O)[C@@H]1O` [CCPA] displayed a Z-SCORE of -1.19.

For the molecule `Nc1nc(Cl)nc2c1ncn2[C@H]1C[C@H](O)[C@@H](CO)O1` [2-Chloro-2'-deoxyadenosine, reference compound], the Z-SCORE was -3.5.

For `CC12CC3CC(C)(C1)CC(N)(C3)C2` [Memantine hydrochloride, reference compound], the Z-SCORE is -1.15.

Regarding `O=c1cnn([C@@H]2O[C@H](CO)[C@@H](O)[C@H]2O)c(=O)[nH]1` [6-AZAURIDINE], the Z-SCORE is -1.32.

With `O=C(O)c1cc(/N=N/c2ccc(S(=O)(=O)Nc3ccccn3)cc2)ccc1O` [SULFASALAZINE], the Z-SCORE was -2.84.

The assay is the same for the next values; noted with them: compound screen of the NIH Clinical Collection, sheet raw data NCC-003; compounds ranked by Z-score.
For the molecule `COc1cc(C[C@@H](CO)[C@H](CO)Cc2ccc(O)c(OC)c2)ccc1O` [SECOISOLARICIRESINOL], the Z-SCORE is -0.17.

In turn, `FC(F)(F)c1cccc(N2CCNCC2)c1` [TFMPP] gave a Z-SCORE of 1.34.

Turning to `CC(=O)CCCCn1cnc2c1c(=O)n(C)c(=O)n2C` [LOMIFYLLINE], the Z-SCORE is -0.7.

`C[C@]12C/C(=C/O)C(=O)C[C@@H]1CC[C@@H]1[C@@H]2CC[C@@]2(C)[C@H]1CC[C@]2(C)O` [Oxymetholone] gave a Z-SCORE of 1.79.

As for `CN(CCO)CC(O)Cn1cnc2c1c(=O)n(C)c(=O)n2C.O=C(O)c1cccnc1` (stereo not shown) [XANTHINOL NICOTINATE], the Z-SCORE was -0.46.

`CC(C)CC(N(C)C)C1(c2ccc(Cl)cc2)CCC1` (stereo not shown) [Sibutramine] showed a Z-SCORE of -0.34.

As for `COc1nc(C)nc(Cl)c1NC1=NCCN1.Cl` [MOXONIDINE HCl], the Z-SCORE is given as 0.68.

Take `CC[C@H](C)C(=O)O[C@H]1C[C@H](O)C=C2C=C[C@H](C)[C@H](CC[C@@H](O)C[C@@H](O)CC(=O)O)[C@H]21` [PRAVASTATIN Sodium]: the Z-SCORE is listed as -0.44.

`CCN1CCC[C@H]1CNC(=O)c1c(O)c(Cl)cc(Cl)c1OC` [Raclopride] gave a Z-SCORE of -0.81.

For `C[C@H]1COc2c(C3(N)CC3)c(F)cc3c(=O)c(C(=O)O)cn1c23` [PAZUFLOXACIN], the Z-SCORE is listed as -0.48.

In turn, `O=C(CCCN1CCC(O)(c2ccc(Cl)cc2)CC1)c1ccc(F)cc1` [Haloperidol] showed a Z-SCORE of -0.98.

Molecule `O=C(CCNNC(=O)c1ccncc1)NCc1ccccc1` [NIALAMIDE] came in with a Z-SCORE of 1.7.

As to `CCCN[C@H]1CCc2nc(N)sc2C1.Cl` [PRAMIPEXOLE HCl], the Z-SCORE is reported as -0.74.

In the case of `CCN(CC)C(=S)SSC(=S)N(CC)CC`, the Z-SCORE is on record as -0.22.

For the molecule `CCN1CCN(c2cc3c(cc2F)c(=O)c(C(=O)O)cn3C2CC2)CC1` [ENROFLOXACIN], the Z-SCORE stood at 0.83.

Molecule `CC[C@H]1OC(=O)[C@H](C)C(=O)[C@H](C)[C@@H](O[C@@H]2O[C@H](C)C[C@H](N(C)C)[C@H]2O)[C@](C)(OC)C[C@@H](C)C(=O)[C@H](C)[C@H]2N(CCCCn3cnc(-c4cccnc4)c3)C(=O)O[C@]12C` [Telithromycin, reference compound] came in with a Z-SCORE of 3.13.

With `CCN(CC)C(=O)C1(c2ccccc2)CC1CN` (stereo not shown) [Milnacipran], the Z-SCORE stood at 0.97.

As for `CC(C)(C)C(O)/C=C/c1ccc2c(c1)OCO2` (stereo not shown) [Stiripentol], the Z-SCORE is reported as -0.21.

`Cc1[nH]c(=O)c(C#N)cc1-c1ccncc1` [MILRINONE] yielded a Z-SCORE of -0.04.

`C[C@]12CC[C@@H]3c4ccc(OS(=O)(=O)[O-])cc4CC[C@H]3[C@@H]1CCC2=O.[Na+]` gave a Z-SCORE of 0.37.

As to `CN1[C@@H]2CC[C@H]1C[C@@H](OC(=O)c1c[nH]c3ccccc13)C2` [TROPISETRON HCl], the Z-SCORE is listed as 0.72.

`CC(C)NCC(O)c1ccc(NS(C)(=O)=O)cc1` (stereo not shown) [Sotalol hydrochloride]: the Z-SCORE is on record as 1.57.

As to `CC1(C)S[C@@H]2[C@H](/N=C/N3CCCCCC3)C(=O)N2[C@H]1C(=O)O`, the Z-SCORE amounted to 1.1.

Turning to `COCCCOc1ccnc(C[S+]([O-])c2nc3ccccc3[nH]2)c1C` (stereo not shown) [RABEPRAZOLE], the Z-SCORE was -0.02.

In the case of `NC1CCN(c2nc3c(cc2F)c(=O)c(C(=O)O)cn3-c2ccc(F)cc2F)C1` (stereo not shown) [TOSUFLOXACIN TOSYLATE], the Z-SCORE is recorded as 0.08.

Take `CC(Oc1c(Cl)cccc1Cl)C1=NCCN1` (stereo not shown) [LOFEXIDINE HCl]: the Z-SCORE is recorded as -0.17.

Regarding `O=C(O)COCCN1CCN([C@H](c2ccccc2)c2ccc(Cl)cc2)CC1` [LEVOCETIRIZINE], the Z-SCORE came out at 0.15.

The assay is the same for the next values; noted with them: compounds at 10 μM, 24 h; PC12 split TEV assay cells co-cultured with Nrg1-expressing PC12 cells; analysed with cellHTS2.
Turning to `COc1ccc2cc(CCC(C)=O)ccc2c1` [NABUMETONE, reference compound], the Z-SCORE was 1.61.

With `O=C(NCC1CCCCN1)c1cc(OCC(F)(F)F)ccc1OCC(F)(F)F` (stereo not shown) [Flecainide Acetate, reference compound], the Z-SCORE was -0.19.

In turn, `CC(COc1ccccc1)NC(C)C(O)c1ccc(O)cc1` (stereo not shown) [Duvadilan, reference compound] returned a Z-SCORE of -1.36.

`Cc1ccc(C)c(OCCCC(C)(C)C(=O)O)c1` [GEMFIBROZIL, reference compound]: the Z-SCORE is recorded as 0.52.

In turn, `CCCC(C)(COC(N)=O)COC(=O)NC(C)C` (stereo not shown) [Carisoprodol, reference compound] had a Z-SCORE of -0.82.

`Clc1ccc(COC(Cn2ccnc2)c2ccc(Cl)cc2Cl)cc1` (stereo not shown) [Econazole Nitrate, reference compound] yielded a Z-SCORE of -2.43.

Regarding `CC(COc1ccccc1)N(CCCl)Cc1ccccc1` (stereo not shown) [Dibenzyline, reference compound], the Z-SCORE is reported as -1.18.

`CC(=O)O[C@]1(C(C)=O)CC[C@H]2[C@@H]3C[C@H](C)C4=CC(=O)CC[C@]4(C)[C@H]3CC[C@@]21C` [Medroxyprogesterone 17-acetate, reference compound]: the Z-SCORE is recorded as -1.59.

In the case of `C/C(=C\C(=O)OCCCCCCCCC(=O)O)C[C@@H]1OC[C@H](C[C@@H]2O[C@H]2[C@@H](C)[C@H](C)O)[C@@H](O)[C@H]1O` [Mupirocin, reference compound], the Z-SCORE came to 0.71.

On to `CC[N+](C)(C)c1cccc(O)c1` [EDROPHONIUM CHLORIDE, reference compound], for which the Z-SCORE is -1.53.

With `CC(=O)OCC(=O)[C@@]1(O)CC[C@H]2[C@@H]3C[C@H](C)C4=CC(=O)C=C[C@]4(C)[C@H]3[C@@H](O)C[C@@]21C` [DEPO-MEDROL, reference compound], the Z-SCORE amounted to 0.97.

Take `Nc1nc(Cl)nc2c1ncn2[C@H]1C[C@H](O)[C@@H](CO)O1` [2-Chloro-2'-deoxyadenosine, reference compound]: the Z-SCORE is -3.5.

As to `CCn1cc(C(=O)O)c(=O)c2cc(F)c(N3CCNCC3)cc21` [NORFLOXACIN, reference compound], the Z-SCORE is reported as -0.08.

The molecule `CNCCCN1c2ccccc2CCc2ccccc21` [Norpramin, reference compound] came in with a Z-SCORE of -3.45.

In turn, `NS(=O)(=O)c1cc2c(cc1Cl)N=CNS2(=O)=O` [Chlorothiazide, reference compound] yielded a Z-SCORE of 0.42.

As to `CCOC(=O)CCC(=O)O[C@H]1[C@H](O[C@@H]2[C@@H](C)[C@H](O[C@H]3C[C@@](C)(OC)[C@@H](O)[C@H](C)O3)[C@@H](C)C(=O)O[C@H](CC)[C@@](C)(O)[C@H](O)[C@@H](C)C(=O)[C@H](C)C[C@@]2(C)O)O[C@H](C)C[C@@H]1N(C)C` [Eryped, reference compound], the Z-SCORE is -0.38.

`NC(=O)N1c2ccccc2C=Cc2ccccc21` [Carbamazepine, reference compound] displayed a Z-SCORE of -0.83.

In the case of `CC12CC3CC(C)(C1)CC(N)(C3)C2` [Memantine hydrochloride, reference compound], the Z-SCORE is reported as 0.5.

`CS(=O)(=O)OCCCCOS(C)(=O)=O` [Busulfan, reference compound]: the Z-SCORE was determined as 0.13.

On to `COc1c2occc2cc2ccc(=O)oc12` [Methoxsalen, reference compound], for which the Z-SCORE came to 0.16.

The molecule `CC(=O)OCC(=O)[C@@]12OC(C)(C)O[C@@H]1C[C@H]1[C@@H]3C[C@H](F)C4=CC(=O)C=C[C@]4(C)[C@@]3(F)[C@@H](O)C[C@@]12C` [FLUOCINOLONE ACETONIDE 21-ACETATE, reference compound] registered a Z-SCORE of 0.81.

In the case of `CC(=O)OCC(=O)[C@@]1(O)CC[C@H]2[C@@H]3CCC4=CC(=O)CC[C@]4(C)[C@H]3C(=O)C[C@@]21C` [CORTISONE ACETATE, reference compound], the Z-SCORE worked out at 0.08.

Take `CC[C@H]1OC(=O)[C@H](C)C(=O)[C@H](C)[C@@H](O[C@@H]2O[C@H](C)C[C@H](N(C)C)[C@H]2O)[C@](C)(OC)C[C@@H](C)C(=O)[C@H](C)[C@H]2N(CCCCn3cnc(-c4cccnc4)c3)C(=O)O[C@]12C` [Telithromycin, reference compound]: the Z-SCORE turned out to be 3.13.

Take `CCC[C@@H]1C[C@@H](C(=O)N[C@@H]([C@H]2O[C@H](SC)[C@H](O)[C@@H](O)[C@H]2O)[C@@H](C)O)N(C)C1` [Lincomycin hydrochloride, reference compound]: the Z-SCORE was determined as 0.53.

`Cc1cccc(C)c1OCC(C)N` (stereo not shown) [Mexitil, reference compound] had a Z-SCORE of 1.1.

In the case of `COc1cc2nc(N3CCN(C(=O)C4COc5ccccc5O4)CC3)nc(N)c2cc1OC` (stereo not shown) [Doxazosin, reference compound], the Z-SCORE came to 0.51.

As for `CN/C(=N/CCSCc1nc[nH]c1C)NC#N` [Cimetidine, reference compound], the Z-SCORE is reported as -0.45.

`CN1CCN(C(=O)O[C@H]2c3nccnc3C(=O)N2c2ccc(Cl)cn2)CC1` [Eszopiclone, reference compound] displayed a Z-SCORE of 0.38.

As for `CN1CCN(CC/C=C2/c3ccccc3Sc3ccc(S(=O)(=O)N(C)C)cc32)CC1` [THIOTHIXENE, reference compound], the Z-SCORE was determined as 1.3.

`CC(C)(C(=O)c1cccnc1)c1cccnc1` [METYRAPONE, reference compound] showed a Z-SCORE of 0.48.

`OC(c1cc(C(F)(F)F)nc2c(C(F)(F)F)cccc12)C1CCCCN1` (stereo not shown) [Mefloquine hydrochloride, reference compound]: the Z-SCORE result is reported as “flagged”.
